In paper PMC8648042, “IMB-XMA0038, a new inhibitor targeting aspartate-semialdehyde dehydrogenase of Mycobacterium tuberculosis” (Emerging Microbes & Infections, 2021):
pKd: −log10 of the molar value.

Target: T1, Aspartate-semialdehyde dehydrogenase (MtASADH) (Mycobacterium tuberculosis, UniProt P9WNX5)
T1 construct: gene asd
Assay: SPR with MtASADH immobilized on CM5 chip; also IC50 […] in LysC-coupled NADPH enzyme assay
Type: binding

T1 sequence (P9WNX5 whole entry, looked up): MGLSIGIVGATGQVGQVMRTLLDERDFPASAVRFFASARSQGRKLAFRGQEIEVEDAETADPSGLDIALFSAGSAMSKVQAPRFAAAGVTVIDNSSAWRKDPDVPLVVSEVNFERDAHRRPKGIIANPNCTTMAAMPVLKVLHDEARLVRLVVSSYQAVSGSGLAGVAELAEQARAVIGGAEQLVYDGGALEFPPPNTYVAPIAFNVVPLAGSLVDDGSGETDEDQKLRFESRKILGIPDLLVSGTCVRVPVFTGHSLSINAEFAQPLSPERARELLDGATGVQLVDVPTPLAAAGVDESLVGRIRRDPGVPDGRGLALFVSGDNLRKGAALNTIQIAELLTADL

O=C(Nc1nnc(C2CCCO2)o1)c1ccc([N+](=O)[O-])o1 (stereo not shown) [IMB-XMA0038, 5-nitro-N-(5-(tetrahydrofuran-2-yl)-1,3,4-oxadiazol-2-yl)furan-2-carboxamide]
pKd: 3.44
